Source: ChEMBL document CHEMBL5620422, “Design, synthesis, and biological evaluation of a series of new anthraquinone derivatives as anti-ZIKV agents” (Eur J Med Chem, 2023)
The source made the active and inactive calls. The calls are words filed in the database; no cut-off is given here.

How the values were obtained:
Zika virus [1] = test: Antiviral activity against ZIKV ZG-01 infected in human SNB-19 cells assessed as reduction in IL-1beta release at 1 to 5 uM by ELISA; type: functional, organism-based; details: dose 1-5 µM
Zika virus [2] = test: Antiviral activity against ZIKV ZG-01 infected in JEG-3 cells assessed as reduction in viral replication at 20 uM preincubated for 1 hr followed by replacement with fresh media containing compound for 48 hrs by RT-PCR analysis; type: functional; parameters: scale not given: the % may be the effect or the level left; details: time 49 hrs
Zika virus [3] = test: Antiviral activity against ZIKV ZG-01 infected in human SNB-19 cells assessed as reduction in TNFalpha release at 1 to 5 uM by ELISA; type: functional, organism-based; details: dose 1-5 µM
Zika virus [4] = test: Antiviral activity against ZIKV ZG-01 infected in Vero cells assessed as reduction in viral replication at 20 uM preincubated for 1 hr followed by replacement with fresh media containing compound for 48 hrs by RT-PCR analysis; type: functional; parameters: scale not given: the % may be the effect or the level left; details: time 49 hrs
Zika virus [5] = test: Antiviral activity against ZIKV ZG-01 infected in SNB-19 cells assessed as reduction in number of viral positive cells at 5 uM by immunofluorescence assay; type: functional, organism-based
Zika virus [6] = test: Antiviral activity against ZIKV ZG-01 infected in human SNB-19 cells assessed as reduction in cell pyroptosis; type: functional, organism-based
SNB-19 [7] = test: Antiinflammatory activity in human SNB-19 cells assessed as reduction in IL-1beta expression by RT-PCR analysis; type: functional, cell-based
SNB-19 [8] = test: Antiinflammatory activity in human SNB-19 cells assessed as reduction in IL-6 expression by RT-PCR analysis; type: functional, cell-based
Zika virus [9] = test: Antiviral activity against ZIKV ZG-01 infected in A549 cells preincubated for 1 hr followed by replacement with fresh media containing compound for 48 hrs by crystal violet staining based plaque assay; type: functional, organism-based; details: time 49.0 hrs
[10] = Toxicity in Ifnar1 knockout C57BL/6 mouse assessed as corneal opacities at 60 mg/kg administered for 7 days; type: organism-based; details: in vivo, 168 h, time 7 day
Zika virus [11] = test: Antiviral activity against ZIKV ZG-01 infected in JEG-3 cells assessed as reduction in viral envelope protein level at 1 to 20 uM after 48 hrs by Western blot assay; type: functional, organism-based; details: dose 1-20 µM
Zika virus [12] = test: Antiviral activity against ZIKV ZG-01 infected in human JEG-3 cells assessed as reduction in GSDMD cleavage by Western blot analysis; type: functional, organism-based; details: dose 1-20 µM
[13] = Cytotoxicity against african green monkey Vero cells assessed as reduction in cell viability incubated for 48 hrs by MTT assay; type: toxicity, cell-based; details: chlorocebus sabaeus
Zika virus [14] = test: Antiviral activity against ZIKV ZG-01 infected in Ifnar1 knockout C57BL/6 mouse assessed as reduction in duration of animal paralysis at 20 mg/kg, iv administered daily for 7 days; type: functional, organism-based; details: time 7.0 day
Zika virus [15] = test: Antiviral activity against ZIKV ZG-01 infected in human SNB-19 cells assessed as reduction in GSDMD cleavage by Western blot analysis; type: functional, organism-based; details: dose 1-20 µM
JEG-3 = test: Antiinflammatory activity in human JEG-3 cells assessed as reduction in IFNgamma expression by RT-PCR analysis; type: functional, cell-based
Zika virus [16] = test: Antiviral activity against ZIKV ZG-01 infected in JEG-3 cells assessed as reduction in number of viral positive cells at 5 uM by immunofluorescence assay; type: functional, organism-based
Zika virus [17] = test: Antiviral activity against ZIKV ZG-01 infected in Vero cells preincubated for 1 hr followed by replacement with fresh media containing compound for 48 hrs by crystal violet staining based plaque assay; type: functional
[18] = Cytotoxicity against human JEG-3 cells assessed as reduction in cell viability incubated for 48 hrs by MTT assay; type: toxicity, cell-based
Zika virus [19] = test: Antiviral activity against ZIKV ZG-01 infected in Ifnar1 knockout C57BL/6 mouse assessed as reduction in weight loss at 20 mg/kg, iv administered daily for 7 days and measured upto 12 dpi; type: functional, organism-based; details: time <= 12.0 day
Zika virus [20] = test: Antiviral activity against ZIKV ZG-01 infected in human JEG-3 cells assessed as reduction in TNFalpha release at 1 to 5 uM by ELISA; type: functional, organism-based; details: dose 1-5 µM
Zika virus [21] = test: Antiviral activity against ZIKV ZG-01 infected in Ifnar1 knockout C57BL/6 mouse assessed as reduction in neuronal necrosis by measuring necrotic debris at 20 mg/kg, iv administered daily for 7 days and measured upto 12 dpi by H and E staining based analysis; type: functional, organism-based; details: time <= 12.0 day
Zika virus [22] = test: Antiviral activity against ZIKV ZG-01 infected in human JEG-3 cells assessed as reduction in IL-6 expression at 1 to 5 uM by RT-PCR analysis; type: functional, organism-based; details: dose 1-5 µM
[23] = Toxicity in Ifnar1 knockout C57BL/6 mouse assessed as body weight loss at 60 mg/kg administered for 7 days; type: organism-based; details: in vivo, 168 h, time 7 day
Zika virus [24] = test: Antiviral activity against ZIKV ZG-01 infected in Ifnar1 knockout C57BL/6 mouse assessed as reduction in neuronal necrosis by measuring karyolysis at 20 mg/kg, iv administered daily for 7 days and measured upto 12 dpi by H and E staining based analysis; type: functional, organism-based; details: time <= 12.0 day
[25] = Cytotoxicity against human SNB-19 cells assessed as reduction in cell viability incubated for 48 hrs by MTT assay; type: toxicity, cell-based
Zika virus [26] = test: Antiviral activity against ZIKV ZG-01 infected in JEG-3 cells preincubated for 1 hr followed by replacement with fresh media containing compound for 48 hrs by crystal violet staining based plaque assay; type: functional
Zika virus [27] = test: Antiviral activity against ZIKV ZG-01 infected in Ifnar1 knockout C57BL/6 mouse assessed as reduction in neuronal necrosis by measuring pyknosis at 20 mg/kg, iv administered daily for 7 days and measured upto 12 dpi by H and E staining based analysis; type: functional, organism-based; details: time <= 12.0 day
Zika virus [28] = test: Antiviral activity against ZIKV ZG-01 infected in A549 cells assessed as reduction in viral replication at 20 uM preincubated for 1 hr followed by replacement with fresh media containing compound for 48 hrs by RT-PCR analysis; type: functional; parameters: scale not given: the % may be the effect or the level left; details: time 49 hrs
Zika virus [29] = test: Antiviral activity against ZIKV ZG-01 infected in SNB-19 cells assessed as reduction in viral envelope protein level at 1 to 20 uM after 48 hrs by Western blot assay; type: functional, organism-based; details: dose 1-20 µM
Zika virus [30] = test: Antiviral activity against ZIKV ZG-01 infected in Ifnar1 knockout C57BL/6 mouse assessed as reduction in brain viral RNA at 20 mg/kg, iv administered daily for 7 days and measured upto 12 dpi by RT-qPCR analysis; type: functional, organism-based; details: time <= 12.0 day
Zika virus [31] = test: Antiviral activity against ZIKV ZG-01 infected in human SNB-19 cells assessed as reduction in TNFalpha expression at 1 to 5 uM by RT-PCR analysis; type: functional, organism-based; details: dose 1-5 µM
Zika virus [32] = test: Antiviral activity against ZIKV ZG-01 infected in Ifnar1 knockout C57BL/6 mouse assessed as reduction in microglia activation by measuring Iba-1 expression at 20 mg/kg, iv administered daily for 7 days by immunohistochemistry analysis; type: functional, organism-based; details: time 7.0 day
Zika virus [33] = test: Antiviral activity against ZIKV ZG-01 infected in human SNB-19 cells assessed as reduction in LDH release incubated for 36 hrs; type: functional, organism-based; details: dose 1-5 µM
Zika virus [34] = test: Antiviral activity against ZIKV ZG-01 infected in human SNB-19 cells assessed as reduction in IL-1beta expression at 1 to 5 uM by RT-PCR analysis; type: functional, organism-based; details: dose 1-5 µM
SNB-19 [35] = test: Antiinflammatory activity in human SNB-19 cells assessed as reduction in IFNgamma expression by RT-PCR analysis; type: functional, cell-based

## C[C@]1(O)CC2=C(C[C@@]1(C)O)C(=O)c1c(O)cc(N3CCC(c4ccccc4)CC3)c(O)c1C2=O
Zika virus [1]
  Activity: Active
Zika virus [2]
  Activity: 100%
Zika virus [3]
  Activity: Active
Zika virus [4]
  Activity: 100%
Zika virus [5]
  Activity: Active
Zika virus [6]
  Activity: Active
SNB-19 [7]
  Activity: inactive
SNB-19 [8]
  Activity: inactive
Zika virus [9]
  Activity: Dose-Dependent Effect
[10]
  Activity: Non-Toxic
Zika virus [11]
  Activity: Active
Zika virus [12]
  Activity: Dose-Dependent Effect
[13]
  CC50 at 48 h: 65.4 µM
Zika virus [14]
  Activity: Active
Zika virus [15]
  Activity: Dose-Dependent Effect
JEG-3
  Activity: inactive
Zika virus [16]
  Activity: Active
Zika virus [17]; ZG-01, Vero, time 49 hrs
  EC90: 6.4 µM
Zika virus [17]; time 49.0 hrs
  Activity: Dose-Dependent Effect
[18]
  CC50 at 48 h: 54.7 µM
Zika virus [19]
  Activity: Active
Zika virus [20]
  Activity: Active
Zika virus [21]
  Activity: Active
Zika virus [22]
  Activity: Active
[23]
  Activity: Non-Toxic
Zika virus [24]
  Activity: Active
[25]
  CC50 at 48 h: 66.1 µM
Zika virus [26]; ZG-01, JEG-3, time 49 hrs
  EC90: 6.4 µM
Zika virus [26]; time 49.0 hrs
  Activity: Dose-Dependent Effect
Zika virus [27]
  Activity: Active
Zika virus [28]
  Activity: 100%
Zika virus [29]
  Activity: Active
Zika virus [30]
  Activity: Active
Zika virus [31]
  Activity: Active
Zika virus [32]
  Activity: Active
Zika virus [33]
  Activity: Dose-Dependent Effect
Zika virus [34]
  Activity: Active
SNB-19 [35]
  Activity: inactive
